Measured values as given in patent publication US12718601B2, “Using machine learning and/or neural networks to validate stem cells and their derivatives (2-D cells and 3-D tissues) for use in cell therapy and tissue engineered products” (The United States of America, as represented by the …, priority 2018, dated 2026).

How the values were obtained:
Assay type in all cases: cell-based, human
iRPE [1] = test: QBAM imaging of drug-treated iRPE (image absorbance); conditions: Healthy-1 and Healthy-2 iRPE, 8-week culture, weekly QBAM imaging
Source text: iRPE from each healthy donor (Healthy-1, Healthy-2) were imaged to determine if QBAM imaging affected cell maturation and could measure a large range in variation of iRPE pigmentation. This was done using three culture conditions: (1) control iRPE (no treatment), (2) iRPE treated with a known inducer of RPE maturation (Aphidicolin), and (3) iRPE treated with a known inhibitor of RPE maturation (hedgehog pathway inhibitor-4, HPI4).
Following differentiation, iRPE from donors Healthy-1 and Healthy-2 were placed on a 12-well 0.4 μm polycarbonate transwell plate (Corning, 3401) at a seeding density of 500,000 cells/ml in 0.5 ml. Only six of the 12 wells were used to minimize the time spent outside of the incubator while imaging. QBAM imaging and drug treatments started two or one weeks after seeding for Healthy-1 and Healthy-2 iRPE, respectively. For each culture plate, two of the six wells were treated with either 3.0 μmol/L Aphidicolin (Sigma Aldrich, A0781-10 MG), 30.0 μM HPI4 (Hedgehog Pathway Inhibitor 4, Sigma Aldrich, H4541-25 MG), or no additives to the RPEMM culture medium. RPEMM was changed three times a week and imaged on the same day every week immediately after medium change. […] For Healthy-2 and Healthy-1, a total of six plates were prepared, with six wells occupied in each plate, yielding 36 total wells imaged and analyzed. […]

iRPE [2] = test: Single cell image features from DNN-S segmented QBAM images of drug-treated iRPE; conditions: for CPI_IntegratedIntensityEdge.K (Intensity 10), Mean / ML_MinIntensity.Mean (Intensity 1), Mean: Healthy-2 iRPE, 3.0 μmol/L Aphidicolin or 30.0 μM HPI4
Description: QBAM imaging and live cell segmentation allows for hundreds of cell image features to be measured and tracked non-invasively on individual cells throughout iRPE maturation. Thus, the trained DNN-S was used to segment QBAM images of living iRPE (Healthy-1 and Healthy-2 donors) treated with Aphidicolin, HPI-4, or nothing (control). Previously published cell image features and intensity metrics known to correlate to RPE maturation and health were then assessed for significance. […] Importantly, this technique allows for unprecedented hierarchical granularity to the data; enabling not just whole well “bulk” tissue measurements, but also as a function of field of view or at an individual cell level Clustering of treatments based off of two features known to be important to RPE maturation and health, cell area and mean cell intensity were performed. Cell minimum intensity, a new metric related to iRPE function identified using SML, is described further below.
Following differentiation, iRPE from donors Healthy-1 and Healthy-2 were placed on a 12-well 0.4 μm polycarbonate transwell plate (Corning, 3401) at a seeding density of 500,000 cells/ml in 0.5 ml. Only six of the 12 wells were used to minimize the time spent outside of the incubator while imaging. QBAM imaging and drug treatments started two or one weeks after seeding for Healthy-1 and Healthy-2 iRPE, respectively. For each culture plate, two of the six wells were treated with either 3.0 μmol/L Aphidicolin (Sigma Aldrich, A0781-10 MG), 30.0 μM HPI4 (Hedgehog Pathway Inhibitor 4, Sigma Aldrich, H4541-25 MG), or no additives to the RPEMM culture medium. RPEMM was changed three times a week and imaged on the same day every week immediately after medium change. To prevent the culture plate lid from fogging during imaging, culture medium in wells were replaced with room temperature RPEMM (with drugs if needed) immediately before imaging since room temperature medium minimized condensation. RPEMM without drug was added to a well without any cells in it to capture the bright reference image for QBAM imaging. For each well, a 4×3 grid of overlapping images were captured (10-15% image overlap) for image stitching using a Zeiss AxioImager M2 microscope with a 10× objective. For Healthy-2 and Healthy-1, a total of six plates were prepared, with six wells occupied in each plate, yielding 36 total wells imaged and analyzed. The iRPE from AMD samples were previously reported by Sharma et al (Sharma et al., 2018), and the iRPE from OCA donors were cultured as described above, but were only imaged after they had matured and were fixed with PFA. In total five well replicates of OCA8, six replicates from OCA9, four replicates of OCA26, eight replicates of OCA71, and four replicates of OCA103 were imaged. For AMD data 1 replicate of AMD1 Clone A, 5 replicates of AMD1 Clone B, 1 Replicate of AMD2 Clone A, 5 replicates of AMD2 Clone B, 1 replicate of AMD2 Clone C, 1 replicate of AMD3 Clone A, 5 replicates of AMD3 Clone B, and 1 replicate of AMD3 Clone C were imaged.
No preprocessing was performed on QBAM images before they were processed with the DNN-S. The structure of the DNN-S was the same as that used to segment the fluorescent images, except the input image had three channels instead of one. The three channels were three QBAM images captured of the same field of view, but each QBAM image was captured at a different wavelength (488 nm, 561 nm, and 633 nm).
In order to extract as many cell-level features as possible, multiple widely were leveraged used image libraries for feature extraction that have been integrated into WIPP. While the feature values for the same feature definitions might vary, they provide insights on the amount of variation introduced not only by image acquisition but also by image processing. […]

iRPE [3] = test: Electrophysiological measurements (TEP and TER) of iRPE monolayers; conditions: treated iRPE relative to control
Description: Electrical resistance measurements used for prediction of the iRPE monolayers were measured using an EVOM2 and EndOhm chamber (World Precision Instruments, EVOM2 and ENDOHM-12 respectively). Each line was measured for its resistance across 12 wells per treatment, per week. Intracellular transepithelial potential and resistance measurements in response to 1 mM potassium (Sigma Aldrich, P5405-1 KG) and 100 μM ATP (Sigma Aldrich, A9187-500 MG) were done identically to that of previous reports (Miyagishima et al., In Pursuit of Authenticity: Induced Pluripotent Stem Cell-Derived Retinal Pigment Epithelium for Clinical Applications, STEM CELLS Transl. Med. 5, 1562-1574 (2016)). Briefly, RPE monolayer cultures derived from iPSC lines were mounted on a modified “Ussing” chamber as described previously (Maminishkis et al., The P2Y2 Receptor Agonist INS37217 Stimulates RPE Fluid Transport In Vitro and Retinal Reattachment, Rat. Invest. Ophthalmol. Vis. Sci. 43, 3555-3566 (2002); Peterson et al., Extracellular ATP Activates Calcium Signaling, Ion, and Fluid Transport in Retinal Pigment Epithelium, J. Neurosci. 17, 2324-2337 (1997)). […] The signals from intracellular microelectrodes were referenced to the basal bath to measure the basolateral membrane potential (Vb) and the apical membrane potential (Va) was calculated by the equation: […]. […]

iRPE [4] = test: mRNA and protein expression of maturation markers in iRPE; conditions: Aphidicolin treated iRPE compared with HPI4 treated iRPE
Description: Tissue preparation for immunohistochemistry was done by placing wells in 4% (mass/volume) paraformaldehyde (Electron Microscopy Science, 157-4-100) for 20 minutes. Immunohistochemistry blocking solution (IBS) consisted of 500 ml of 1× DPBS (Dulbecco's phosphate-buffered saline, Life Technologies, 14190250), 5% (mass/volume) bovine serum albumin (Sigma Aldrich, A3311), 0.5% (mass/volume) Triton X-100 (Sigma Aldrich, X100-100ML), and 0.5% (mass/volume) TWEEN20 (Sigma Aldrich, P2287-100ML). Fixed cells were washed with IBS three times and permeabilized for 2 hours with IBS at room temperature. Cells were then stained with the following primary antibody for 1 hour at room temperature: RPE65 (anti-RPE65 monoclonal antibody [1:300, Abcam, ab13826), Ezrin (monoclonal anti-ezrin antibody, 1:100, Sigma Aldrich, E8897), or GT335 (anti-polyglutamylation modification monoclonal antibody, 1:1000, Adipogen, AG-20B-0020). […] RNA was quantified using an ND-1000 spectrophotometer (Nanodrop Technologies) and the manufacturers protocol. cDNA synthesis was performed using the Script cDNA Synthesis Kit (Bio-Rad, 1708891) and the manufacturer provided protocols. […] An HPI4 well had to be excluded due to extremely low RNA extraction from the well and an insufficient quantity of cDNA being amplified to measured. […] Data was analyzed using R software (R Development Core Team, 2011).

Row | Structure (SMILES) | image absorbance over time (iRPE [1]) | mean number of neighbors each iRPE cell had (iRPE [2]; Healthy-1 and Healthy-2 iRPE, across all time points, p<0.001) | CPI_IntegratedIntensityEdge.K (Intensity 10), Mean (iRPE [2]; week 2) | ML_MinIntensity.Mean (Intensity 1), Mean (iRPE [2]; week 2) | CPI_IntegratedIntensityEdge.K (Intensity 10), Mean (iRPE [2]; week 3) | ML_MinIntensity.Mean (Intensity 1), Mean (iRPE [2]; week 3) | CPI_IntegratedIntensityEdge.K (Intensity 10), Mean (iRPE [2]; week 4) | ML_MinIntensity.Mean (Intensity 1), Mean (iRPE [2]; week 4) | CPI_IntegratedIntensityEdge.K (Intensity 10), Mean (iRPE [2]; week 5) | ML_MinIntensity.Mean (Intensity 1), Mean (iRPE [2]; week 5) | CPI_IntegratedIntensityEdge.K (Intensity 10), Mean (iRPE [2]; week 6) | ML_MinIntensity.Mean (Intensity 1), Mean (iRPE [2]; week 6) | CPI_IntegratedIntensityEdge.K (Intensity 10), Mean (iRPE [2]; week 7) | ML_MinIntensity.Mean (Intensity 1), Mean (iRPE [2]; week 7) | baseline electrical response (TEP and TER) and its change to 1 mM potassium (K+) or 100 μM ATP (iRPE [3]) | mRNA and protein expression of maturation markers (iRPE [4])
1 | N#CC(=C(O)c1ccc(Cl)cc1Cl)c1nc2ccccc2c(=O)[nH]1 [HPI4] | decreasing trend in absorbance | significantly lower | 5.11 | 141.81 | 6.45 | 179.97 | 6.45 | 104.78 | 7.21 | 133.78 | 8.06 | 126.02 | 8.06 | 110.26 | significantly lower | –
2 | C[C@@]1(CO)[C@H](O)CC[C@@]2(C)[C@H]1CC[C@H]1C[C@@H]3C[C@@]12CC[C@]3(O)CO [Aphidicolin] | increasing image absorbance | – | 5.87 | 144.67 | 6.07 | 204.31 | 5.3 | – | 5.59 | 183.77 | 4.76 | 185.15 | 4.53 | 180.84 | significantly greater | Higher
